Measured values from patent EP4623928A1, “GLP-1R ANTAGONISTS FOR THE TREATMENT OF CANCER” (Fiorina, Paolo, priority 2024, dated 2025).

How the values were obtained:
[1] = tested on: untransduced-mock and pmY-GLP-1R transduced CD3^+ T cells; assay: Proliferation, apoptosis and IFN-γ expression of untransduced-mock and pmY-GLP-1R transduced CD3+ T cells; assay type: cell-based, murine; conditions: Exe-4
Protocol: The mGLP-1R cDNA construct (Origene) was inserted into the pMY-IRES-GFP plasmid (Cell BioLabs, Inc., San Diego, CA). The Platinum-E Retroviral Packaging cell line was transfected with the pMY-IRES-GFP plasmid expressing GLP-1R using polybrene (Santa Cruz Biotechnology), and supernatant was collected. T cells were activated for 48 hours in the presence of soluble anti-CD3/CD28 at 0.5 µg/ml each in the presence of IL-2 (400 ng/ml) (R&D Systems), and viral supernatant was added. The upregulation of GLP-1R was assessed by FACS and western blot analysis.

[2] = tested on: naive CD4^+CD25^- T cells; assay: Treg induction assay; assay type: cell-based; conditions: Exe-4 (1nM), 5 days
Protocol: Naive CD4^+ CD25^- T cells were selected and activated for 5 days with 1 µg/ml of plate-bound […] anti-CD3 and anti-CD28 antibodies (BD Biosciences). Cells were cultured for 5-days in the presence of IL-2 (10ng/ml; R&D Systems) and TGFβ (2ng/mL; R&D Systems), anti-IL-4 (0.5µg/ml; PeproTech) and anti-IFNγ (2µg/mL; PeproTech) and were treated with Exe-4 (1nM) or left untreated. Then, cells were washed, pulsed for 4-hrs with phorbol myristate acetate (PMA; 50ng/mL; Sigma-Aldrich), ionomycin (500ng/mL; Sigma-Aldrich) and Golgi-stop (1.0µl/mL; BD Biosciences) and then analyzed by FACSCelesta (BD Biosciences) for the expression of Foxp3, Tbet and RoryT as previously reported (38).

islet allografts = assay: Murine islet allotransplantation (BALB/c islets into STZ-treated C57BL/6 mice); assay type: in vivo
Protocol: Pancreatic islets from BALB/c mice were isolated by collagenase digestion and density gradient separation as previously described (33, 34). Subsequently, four to five hundred islets were inoculated under the renal capsule of each C57BL/6 recipient rendered diabetic with streptozotocin (STZ) (200 mg/kg, administered i.p. Sigma-Aldrich). Islet transplantation success was confirmed by glycaemia normalization. Rejection of islet allografts was defined as blood glucose levels >250 mg/dl for at least 2 consecutive days (35). Treatment modalities were the following: transplanted mice were intraperitoneally injected according to the following protocols: 1) Exendin-4 (Exe-4) (Amylin Pharmaceuticals, San Diego, CA -USA) 0.2pg twice/day for two weeks after transplant; 2) Exe-4 0.2pg twice/day from the day before until two weeks after transplant; 3) Exendin-4 2µg twice/day from the day before until two weeks after transplant; 4) Exendin-4 2µg twice/day + Exendin-9-39 (Exe-9) (Sigma-Aldrich) 2µg twice/day from the day before until two weeks after transplant; 5) Exendin-4 2µg twice/day from the day before until two weeks after transplant + Rapamycin 0.1mg/die for two weeks; 6) saline 0.5ml twice/day for two weeks. The follow-up of the transplanted mice was for 100 days.

[3] = tested on: untransduced-mock and pmY-GLP-1R transduced CD3^+ T cells; assay: Seahorse bioenergetic analysis, mock and pmY-GLP-1R transduced CD3+ T cells; assay type: cell-based, murine; conditions: pmY-GLP-1R transduced vs untransduced-mock CD3^+ T cells, Exe-4 (1 nM)
Protocol: Cellular Bioenergetics were analyzed using the Seahorse Extracellular Flux Analyzer Xfe96 (Agilent Technologies, Santa Clara, CA, United States), which simultaneously measures Oxygen Consumption Rate (OCR, pmolO2/min), ExtraCellular Acidification Rate (ECAR, mpH/min) and Proton Efflux Rate (PER, pmolH^+/min). For Seahorse experiments 150.000 cells either freshly isolated GLP-1R^pos or GLP-1R^neg CD3^+ T cells or activated with soluble anti-CD3/CD28 at 0.5 µg/ml each in the presence or not of Exe-4 (1 nM); in another setting untransduced mock CD3^+ T cells or pmY-GLP-1R CD3^+ T cells already activated with soluble anti-CD3/CD28 at 0.5 µg/ml each in the presence or not of Exe-4 (1 nM). Cells were resuspended in 50 µL assay medium (Agilent #103576-100 RPMI Medium pH7.4, supplemented with 10mM glucose, 2mM glutamine and 1mM Na-pyruvate) were seeded in each CellTak-precoated well of an Agilent Xfe96 Pro well plate. The cell plate was centrifuged 2 times at 40 × g (zero braking) for 1 minute. After centrifugation, 150 µL warm assay medium was gently added to each well. […]
Seahorse parameters were normalized to cell number in each well. To this purpose, at the end of the Seahorse analysis, cell nuclei were stained with Hoechst 33342 (1 µg/mL) for about 15 min, imaged and counted with Operetta CLS™ software Harmony, as previously described (43). […]

[4] = both untransduced-mock and pmY-GLP-1R transduced CD3^+ T cells

What does the source list for Exendin-4 [Exe-4]?
IFN-γ expression [1, 4]: without any effect; proliferation [1, 4]: no effect; apoptosis ([1]; pmY-GLP-1R transduced CD3^+ T cells only): significantly increased; Ror-yT on iTregs (iTreg stability) [2]: significant reduction; Tbet on iTregs (iTreg stability) [2]: significant reduction; Treg induction (percentage of FoxP3^+CD4^+CD25^+ Tregs) [2]: no substantial differences; recipients with prolongation of islet survival up to 100 days (islet allografts; high doses of Exe-4 preceded by a pre-treatment): 60%; [MST] (islet allograft survival) (islet allografts; high doses of Exe-4 preceded by a pre-treatment (2µg twice/day, i.p.), p<0.001 vs untreated): 67 days; graft infiltration (Hematoxylin and eosin staining) (islet allografts; islet allograft at day 14, Exe-4-treated mice): decreased graft infiltration; recipients with prolongation of islet survival up to 100 days (islet allografts; low dose of Exe-4): 20%; [MST] (islet allograft survival) (islet allografts; low dose of Exe-4 (b66 prints 0.2pg twice/day, i.p.), untreated [MST]=12 days, p=0.001): 41 days; CD8^+ effector memory cells (islet allografts; splenic, Exe-4 treatment): reduction; Treg lymphocytes (islet allografts; splenic, Exe-4 treatment): significant increase; ATP production from mitochondrial respiration [3]: significantly increased; OCR values [3]: significantly increased
